Several values for one entry are separate records, joined by “and”; a condition that tells them apart may be missing. Equal values may be shown once. Read-outs that look alike come from different tables or passages of the source.

One experiment addresses T1, rat TRPM8 (Rattus norvegicus, UniProt Q8R455).
T1 construct: expressed in transfected cells
Description: Thermo-TRP assay: [Ca2+]i elevation (Fluo-4) in HEK-293 cells transfected with TRPM8. The experiment is classed as cell-based. Here is the method: The compounds were tested on HEK-293 cells either stably transfected with rat TRPA1, TRPV2, TRPV3, TRPV4, TRPM8 or human TRPV1 or not-transfected, by performing a continuous monitoring of the intracellular calcium ([Ca^2+]i) elevation during the experiments, following the protocol already described. […] Cell fluorescence before and after the addition of various concentrations of tested compounds was measured, normalizing the effects against the response to ionomycin (IM, 4 μM). The effect on [Ca^2+]i in non-transfected HEK-293 cells were used as the baseline and subtracted from the values obtained from the transfected ones. The efficacy of the agonists was determined by normalizing their effect to the maximum Ca^2+ influx effect on [Ca^2+]i observed with application of 4μM ionomycin. The effects of TRPA1 agonists are expressed as a percentage of the effect obtained with 100 μM allyl isothiocyanate (AITC). In the TRPV3 assay, rat TRPV3-expressing HEK-293 cells were first sensitized with the structurally unrelated agonist 2-aminoethoxydiphenyl borate (100 μM). For the TRPM8, the experiments were carried out at 22 °C. The potency (EC50 values) is determined as the concentration required to produce half-maximal increases in [Ca^2+]i. […] A dose-response curve fitting (sigmoidal dose-response variable slope) and parameter estimation were performed with Graph-Pad Prism 8 (GraphPad Software Inc., San Diego, CA, USA). All determinations were performed at least in triplicate.

A further experiment deals with T2, rat TRPV3 (Rattus norvegicus, UniProt Q4QYD9).
T2 construct: expressed in transfected cells
T2 sequence (Q4QYD9 1-791): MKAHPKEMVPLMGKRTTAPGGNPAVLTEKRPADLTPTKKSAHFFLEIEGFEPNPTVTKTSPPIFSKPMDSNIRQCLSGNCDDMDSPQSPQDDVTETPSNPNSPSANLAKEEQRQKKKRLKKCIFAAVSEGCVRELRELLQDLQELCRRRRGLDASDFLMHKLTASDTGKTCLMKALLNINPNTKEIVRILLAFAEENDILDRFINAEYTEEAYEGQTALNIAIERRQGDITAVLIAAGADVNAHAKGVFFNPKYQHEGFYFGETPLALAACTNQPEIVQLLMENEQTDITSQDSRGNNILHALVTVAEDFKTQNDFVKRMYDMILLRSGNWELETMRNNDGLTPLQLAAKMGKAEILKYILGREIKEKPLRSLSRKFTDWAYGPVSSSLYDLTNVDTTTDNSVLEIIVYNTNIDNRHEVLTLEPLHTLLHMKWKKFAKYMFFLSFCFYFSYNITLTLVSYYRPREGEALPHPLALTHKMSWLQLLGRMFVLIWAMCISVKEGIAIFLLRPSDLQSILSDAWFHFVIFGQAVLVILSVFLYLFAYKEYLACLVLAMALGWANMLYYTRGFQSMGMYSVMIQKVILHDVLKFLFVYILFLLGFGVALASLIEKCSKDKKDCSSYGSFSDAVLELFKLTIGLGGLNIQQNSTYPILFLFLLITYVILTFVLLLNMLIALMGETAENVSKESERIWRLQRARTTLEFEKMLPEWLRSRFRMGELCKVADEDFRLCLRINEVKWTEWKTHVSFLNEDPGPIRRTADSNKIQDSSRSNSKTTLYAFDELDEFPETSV
The experiment is described as follows: Thermo-TRP assay: [Ca2+]i elevation (Fluo-4) in HEK-293 cells transfected with TRPV3. The experiment is classed as cell-based. The note with it: for TRPV3 Efficacy (% Ionomycin 4 μM): agonist effect as % of ionomycin 4 μM, cells sensitized with 2-aminoethoxydiphenyl borate 100 μM; for IC50: antagonist/desensitizing, vs Thymol 100 μM; for EC50: half-maximal increase in [Ca2+]i, read-out: TRPV3 Potency EC50. The procedure:
The compounds were tested on HEK-293 cells either stably transfected with rat TRPA1, TRPV2, TRPV3, TRPV4, TRPM8 or human TRPV1 or not-transfected, by performing a continuous monitoring of the intracellular calcium ([Ca^2+]i) elevation during the experiments, following the protocol already described. On the day of the experiment, the cells were loaded for 1 h in the dark at room temperature with the fluorescent probe Fluo-4 AM (4 μM in DMSO containing 0.02% Pluronic F-127). The cells were rinsed, resuspended in Tyrode’s solution (145 mM NaCl, 2.5 mM KCl, 1.5 mM CaCl2, 1.2 mM MgCl2, 10 mM D-glucose, and 10 mM HEPES, pH 7.4), and transferred to a quartz cuvette of a spectrofluorimeter (PerkinElmer LS50B; λEX = 488 nm, λEM = 516 nm) equipped with a PTP-1 fluorescence Peltier system (PerkinElmer Life and Analytical Sciences, Waltham, MA, USA) under continuous stirring. Cell fluorescence before and after the addition of various concentrations of tested compounds was measured, normalizing the effects against the response to ionomycin (IM, 4 μM). The effect on [Ca^2+]i in non-transfected HEK-293 cells were used as the baseline and subtracted from the values obtained from the transfected ones. The efficacy of the agonists was determined by normalizing their effect to the maximum Ca^2+ influx effect on [Ca^2+]i observed with application of 4μM ionomycin. The effects of TRPA1 agonists are expressed as a percentage of the effect obtained with 100 μM allyl isothiocyanate (AITC). In the TRPV3 assay, rat TRPV3-expressing HEK-293 cells were first sensitized with the structurally unrelated agonist 2-aminoethoxydiphenyl borate (100 μM). For the TRPM8, the experiments were carried out at 22 °C. The potency (EC50 values) is determined as the concentration required to produce half-maximal increases in [Ca^2+]i. Antagonist/desensitizing behavior is evaluated against the agonist of the TRP analyzed by adding the compounds directly in the quartz cuvette 5 min before stimulation of cells with the agonist (allylisothiocyanate (100 μM) for TRPA1, capsaicin (0.1 μM) for TRPV1, cannabidiol (2 μM) for TRPV2, thymol (100 μM) for TRPV3, GSK1016790A (10 nM) for TRPV4, and icilin (0.25 μM) for TRPM8). The IC50 value is expressed as the concentration exerting a half-maximal inhibition of the agonist effect, taking as 100% the effect on [Ca^2+]i exerted by the agonist alone. A dose-response curve fitting (sigmoidal dose-response variable slope) and parameter estimation were performed with Graph-Pad Prism 8 (GraphPad Software Inc., San Diego, CA, USA). All determinations were performed at least in triplicate.

Setting [1] is: vs Icilin 0.25 μM, 22 °C, read-out: IC50 TRPM8.

T1 sequence (Q8R455 whole entry): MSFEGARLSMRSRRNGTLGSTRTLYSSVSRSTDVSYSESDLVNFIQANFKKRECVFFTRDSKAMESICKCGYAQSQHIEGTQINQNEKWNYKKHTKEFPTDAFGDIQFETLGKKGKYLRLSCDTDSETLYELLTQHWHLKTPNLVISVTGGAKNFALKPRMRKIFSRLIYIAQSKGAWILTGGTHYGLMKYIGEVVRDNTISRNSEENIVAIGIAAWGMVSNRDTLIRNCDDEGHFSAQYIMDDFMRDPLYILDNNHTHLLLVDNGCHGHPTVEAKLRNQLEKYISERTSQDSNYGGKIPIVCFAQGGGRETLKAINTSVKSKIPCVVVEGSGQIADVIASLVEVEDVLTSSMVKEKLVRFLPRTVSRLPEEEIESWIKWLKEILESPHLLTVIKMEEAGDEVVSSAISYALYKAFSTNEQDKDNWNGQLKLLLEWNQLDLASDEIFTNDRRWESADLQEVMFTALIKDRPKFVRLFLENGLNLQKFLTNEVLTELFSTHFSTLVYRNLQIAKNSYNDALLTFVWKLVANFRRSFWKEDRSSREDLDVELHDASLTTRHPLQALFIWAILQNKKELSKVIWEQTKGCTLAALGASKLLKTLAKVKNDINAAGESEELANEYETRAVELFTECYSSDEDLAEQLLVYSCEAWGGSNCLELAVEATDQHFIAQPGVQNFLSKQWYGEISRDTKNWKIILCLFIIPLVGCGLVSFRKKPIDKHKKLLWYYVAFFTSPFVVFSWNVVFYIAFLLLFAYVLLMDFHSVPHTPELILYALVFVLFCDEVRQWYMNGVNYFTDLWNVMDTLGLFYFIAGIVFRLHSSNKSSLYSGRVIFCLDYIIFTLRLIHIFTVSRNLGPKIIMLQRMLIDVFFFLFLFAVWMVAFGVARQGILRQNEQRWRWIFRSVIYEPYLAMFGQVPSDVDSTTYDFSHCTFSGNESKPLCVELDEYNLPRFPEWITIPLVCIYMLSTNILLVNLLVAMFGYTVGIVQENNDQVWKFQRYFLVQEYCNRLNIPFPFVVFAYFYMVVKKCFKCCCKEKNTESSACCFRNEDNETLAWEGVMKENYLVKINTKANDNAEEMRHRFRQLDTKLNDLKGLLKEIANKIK

Usually IC50 stands for the midpoint of a concentration-inhibition curve. For orientation: EC50 means the midpoint of the concentration-response curve. As for `C=C(C)[C@@H]1CCC(C)=C[C@H]1C1=C(O)C(=O)C(C(C)(C)CCCCCC)=CC1=O` [5b], the IC50 on rat TRPM8 (setting [1]) was determined as 1.2 ± 0.1 µM. Also, on rat TRPV3, the “TRPV3 Efficacy (% Ionomycin 4 μM)” value was 64.3 ± 0.9%, the half-maximal inhibitory concentration (IC50) turned out to be 0.76 ± 0.01 µM and the EC50 was determined as 0.46 ± 0.02 µM.

In turn, `CCCCCCC(C)(C)C1=CC2=C(C(=O)C1=O)[C@@H]1CC(C)=CC[C@H]1C(C)(C)O2` [6b] gave an IC50 against rat TRPM8 greater than 100 µM. In addition, on rat TRPV3, the “TRPV3 Efficacy (% Ionomycin 4 μM)” value was determined as 66.8 ± 2.2%, the 50% inhibitory concentration (IC50) came out at 0.72 ± 0.08 µM and the half-maximal effective concentration (EC50) worked out at 0.5 ± 0.1 µM.

In the case of `CCCCCCC(C)(C)C1=CC(=O)C(C/C=C(\C)CCC=C(C)C)=C(O)C1=O` [7b, p-DMHCBGQ], the IC50 at rat TRPM8 (setting [1]) amounted to 14.9 ± 3.9 µM. In addition, on rat TRPV3, the “TRPV3 Efficacy (% Ionomycin 4 μM)” value came out at 51.1 ± 1.0%; the IC50 was < 10 µM and 8.6 µM; the concentration for a half-maximal effect (EC50) came out at 1.5 ± 0.2 µM.

In the case of `CCCCCCC(C)(C)C1=CC(=O)C2=C(OC(C)(CCC=C(C)C)C=C2)C1=O` (stereo not shown) [8b], the IC50 on rat TRPM8 (setting [1]) is greater than 100 µM. For the same compound, at rat TRPV3, the “TRPV3 Efficacy (% Ionomycin 4 μM)” value was 37.55 ± 0.85%, the IC50 was found to be 38.3 ± 2 µM and the EC50 is 13.6 ± 1.8 µM.

The values are drawn from paper PMC11942486, “The Impact of a Quinone Scaffold on Thermo-TRPs Modulation by Dimethylheptyl Phytocannabinoids” (International Journal of Molecular Sciences, 2025).
